Measurements from patent EP1347751B1, “METHODS OF TREATING BONE CANCER AND THE PAIN ASSOCIATED THEREWITH USING ENDOTHELIN ANTAGONISTS” (ABBOTT LABORATORIES, priority 2000, dated 2002).

Experiments:
[1] = system: prostate specific antigen (PSA); experiment: Prostate Specific Antigen level assay (Chiron ACS: Centaur PSA2 sandwich immunoassay) in serum of treated subjects; type: in vivo, human; details: men with hormone refractory prostate cancer; oral 2.5 mg or 10 mg vs placebo; AUC, Figure 2
Description: (§1) Studies were performed on male subjects with asymptomatic hormone refractory prostate cancer with rising PSA levels and on male subjects with symptomatic hormone refractory prostate cancer with rising PSA levels and pain. Subjects in the phase II studies had castrate levels of testosterone, either due to pharmacologic intervention, via leuprolide (Lupron®) or goserelin (Zoladex®), or via surgical castration. Subjects received ABT-627 or placebo. The following tests were conducted: • ABT-627 was formulated in 2.5 and 10 mg doses. An oral liquid formulation of ABT-627 was also prepared as follows: 1 mg/ml ABT-627, 50% glycerin, 14% alcohol, and water. Matching placebos were also provided.
(§2) A number of recognized or putative biochemical markers of disease progression have been used to monitor treatment of individuals with prostate cancer. […]
The effect of ABT-627 administration on prostate specific antigen (PSA) levels in human subject serum samples was determined using the procedure described in the Chiron Diagnostics ACS: Centaur PSA2 Assay. […]
Briefly, a subject population was treated with a placebo or 2.5 mg or 10 mg of ABT-627. […] A direct relationship exists between the amount of PSA present in the patient sample and the RLU's (relative light units) detected.

[2] = system: Acid Phosphatase (ACP); experiment: Acid Phosphatase levels in serum of treated subjects (Sigma Diagnostics ACP Procedure No. 435); type: in vivo, human; details: men with hormone refractory prostate cancer, treated vs placebo, AUC, Figure 7
Description: as §1, with “provided. […]” for “provided.”
The effect of ABT-627 administration on Acid Phosphatase levels in human subject serum samples was determined at Quintiles Laboratories using the chemical test described in Sigma Diagnostics Acid Phosphatase (ACP) Procedure No. 435. […] The alpha-naphthol immediately reacts with fast red TR salt to produce a yellow chromophore with an absorbance maximum at 405 nm. The rate of increase in absorbance at 405 nm is directly proportional to ACP activity in the sample. ACP activity was determined in the presence and absence of L-tartrate, the difference being attributed to prostatic acid phosphatase activity. […]

[3] = system: Chromagranin-A; experiment: Chromagranin-A levels in serum of treated subjects (two site chemiluminescence assay, ICMA); type: in vivo, human; details: men with hormone refractory prostate cancer, 2.5 mg/day, AUC, Figure 8
Description: as §1, §2
The effect of ABT-627 adminstration on Chromagranin-A levels in human serum samples was determined by proprietary assay conducted at the Nichols Institute. […] The bound, acridinium-labeled material produces light that is detected in a luminometer after addition of triggering agents. […]

[4] = system: Interleukin-6; experiment: Interleukin-6 levels in serum of treated subjects (sandwich immunoassay); type: in vivo, human; details: men with hormone refractory prostate cancer, 2.5 mg or 10 mg vs placebo, AUC, Figure 1
Description: as §1, §2
The effect of ABT-627 adminstration on Interleukin-6 levels in human serum samples was determined at Quintiles Laboratories using a sandwich immunoassay. […] After incubation, the wells were washed, and the bound enzymatic activity was measured using a chromogenic substrate. […]

[5] = Bone scan (Tc-99m phosphonate, bone scan index) in treated subjects; type: in vivo, human; details: men with hormone refractory prostate cancer; bone scans; 10 mg versus placebo; Figure 6
Description: as §1
Bone scans were performed with an NDA approved, Tc-99m phosphonate type radiopharmaceutical. This technique uses whole body format (skull to feet) so that anterior and posterior images are presented when using a 510 K-approved gamma camera. […] Each site was evaluated against a confidence score of 1 to 5, where 1 is negative, 2 is probably negative, 3 is equivocal, 4 is probably positive, and 5 is definitely positive. […] In addition, in a blinded study, a reference nuclear medicine physician interpreted the bone scans quantitatively as follows: the percent of involved bone was estimated for each individual bone, and the individual bone involvement was summed to calculate a global percent bone scan index (BSI). […]

[6] = Visual Analog Scale (VAS) pain assessment in treated subjects; type: in vivo, human; details: men with symptomatic hormone refractory prostate cancer; 2.5 mg or 10 mg vs placebo; independent of the effects of morphine; AUC, Figure 3
Description: as §1, with “provided. […]” for “provided.”
During the course of the study, pain asessments were done daily, at bedtime, by the subject. […] The log also contained a table on which was recorded all daily pain medication consumed by the patient. […] Clinical personnel who received the logs measured the score by measuring the distance (in mm) from the "no pain" end mark to the point where the subject's line crossed the VAS line. […]
The weekly VAS scores were calculated excluding the lowest and highest score for each week and averaging the remaining five scores. […]

[7] = system: bone alkaline phosphatase (BAP); experiment: Bone Alkaline Phosphatase levels in treated subjects (Alkphase-B assay); type: in vivo, human; details: men with hormone refractory prostate cancer; 10 mg vs placebo; AUC, Figure 5
Description: as §1
(§3) Markers of osteoblastic activity were assessed using urine samples. Bone markers include bone alkaline phosphatase (BAP), deoxypridinoline, and N-telopeptide of Type I collagen. Blood samples were collected prior to dosing on Day 1, Day 42, Day 84, Day 168, and every 28 days after Day 168, with a final collection on the last day of the study.
Bone Alkaline Phosphatase levels were determined using the bone-specific Alkphase-B® assay published by Metra Biosystems (Mountain View, CA).

[8] = system: carboxyterminal cross-linked telopeptide of type I collagen (ICTP); experiment: Crosslinked N-telopeptide levels in treated subjects (DiaSorin ICTP radioimmunoassay); type: in vivo; details: men with hormone refractory prostate cancer; human serum; 10 mg vs placebo; AUC, Figure 4
Description: as §1, §3
Cross-linked N-telopeptide levels were determined using the DiaSorin (Stillwater, MN) assay for the quantitative determination of carboxyterminal cross-linked telopeptide of type I collagen (ICTP) in human serum by equilibrium radioimmunoassay (RIA). […] The bound tracer in the pellet was counted with a gamma counter. […]

## CCCCN(CCCC)C(=O)CN1C[C@H](c2ccc3c(c2)OCO3)[C@@H](C(=O)O)[C@@H]1c1ccc(OC)cc1 [ABT-627]
[1]
  rate of increase of PSA in the serum samples: decreases
[2]
  average change from baseline for acid phosphatase: decreased
  rate of increase for acid phosphatase: decreased
[3]
  average change from baseline for Chromagranin-A: higher
[4]
  average change in baseline for Interleukin-6: lower
[5]
  proportion of total skeketal involvement: decrease in the proportion of total skeketal involvement
[6]
  VAS scores (pain): decrease in pain
[7]
  BAP levels: decreased
[8]
  Crosslinked N-telopeptide levels: decreased
